Patent US8895522B2, “Composition and method for the prevention, treatment and/or alleviation of an inflammatory disease” (Index Pharmaceuticals AB, priority 2005, dated 2014)
“Also recorded” adds a separate entry of the source. In the oligonucleotide strings, read from the 5' end, every base follows the letter of its sugar. An asterisk marks phosphorothioate; unmarked linkages are phosphodiester. Other units and linkages are bracketed, terminal groups are in braces. A string of capitals states the bases alone. d = 2'-deoxy (DNA)

How the values were obtained:
human PBMC [1] = assay: IL-10 induction from healthy human PBMC by SEQ.ID.NO 1 after dexamethasone pre-incubation (ELISA); assay type: cell-based
Description: ELISA assays where performed according to the manufactures recommended guidelines (R&D systems). Plates were analyzed using AID ELISpot reader system (Autoimmun Diagnostika GmbH, Strassberg Germany).
For this assay again 500,000 PBMC cells per well, derived from blood from healthy human donors, were incubated for 12 hours in the presence of various concentrations of dexamethasone, after which, the cells were washed and fresh medium as added. The cells were then allowed to further incubate in the presence of either 25 uM or 100 uM of SEQ.ID.NO 1 for an additional 24 hours after which levels of IL-10 were measured using a commercial available IL-10 ELISA kit.

human PBMC [2] = assay: Induction of IL-10 from healthy human PBMC (ELISpot); assay type: cell-based; conditions: PBMC from 5 healthy individuals, 48 hours
Description: Whole blood was obtained from healthy blood donors. PBMCs were prepared from 30 ml whole blood according to the following protocol:
30 ml blood was transferred directly into heparinized tubes. All blood was transferred into one 50 ml Falcon tube and PBS added up to 50 ml. 15 ml Ficoll (17-1440-03, obtained from Amersham Bioscience AB, Uppsala) was then added into two falcon tubes (50 ml). The PBS-treated blood was then carefully added on the top of to Ficoll, 25 ml to each tube. The tubes were then centrifuged 25 min at 1700 RPM at RT (20° C.).
RPMIc medium was prepared under sterile conditions, using a 0.22 uM filter. (RPMIc denotes a RPMI 1640 culture medium (R0883, Sigma) supplemented with 5% heat-inactivated (56° C.,1 h) FCS 1.5 mM L-glutamine (G7513, Sigma), 100 U/ml penicillin and 100 ug/ml streptomycin, PEST (P0781, Sigma), hepes (H0887, Sigma), and gentamycin (G1272, Sigma)).
The interphase was carefully pipetted from the two tubes into 2x 50mi Falcon tubes. PBS was added up to 50 ml in each tube, and the tubes centrifuged for 10 min at 1700 RPM (4° C.).
The supernatant was discarded, and PBS added to 30 ml, whereupon the tubes were centrifuged at 10 min at 1500 RPM (4° C.). Again, the supernatant was discarded, 10 ml PBS added, and the pellets from the two falcon tubes pooled.
The cells were counted and left in PBS, then centrifuged at 1200 RPM, 10 min. Medium was then added to obtain the concentration of interest, and the cells counted (16 squares)×3. The mean value was calculated and multiplied with the dilution factor×10^4=cells/ml. Diluting the cells to 10 million/ml will result in 500.000 cells/50 ul medium, 6 million/ml will be 300.000/50 ul medium.
Elispot assays where performed according to the manufactures recommended guidelines (MabTech) and the plates were analyzed using an AID ELISpot reader system (Autoimmun Diagnostika GmbH, Strassberg, Germany).
Approximately 500,000 PBMC cells per well, derived from blood from healthy human donors, were incubated for 48 hours in the presence of the different oligonucleotides. Specifically, SEQ.ID.NO 1, SEQ.ID.NO 2, SEQ.ID.NO 6 and SEQ.ID.NO 8. Following incubation, the wells were developed according to the kit supplier's recommendations and the average number of positive cells producing IL-10 per well were counted using an AID ELISpot reader system, (Autoimmun Diagnostika GmbH, Strassberg, Germany).

[3] = tested on: steroid refractory/dependent IBD patients (ulcerative colitis and Crohn's disease); assay: Human pilot proof of concept study in steroid resistant/dependent patients; assay type: in vivo; conditions: for Clinical response at week 1, responders: 5/7 patients, on concomitant steroid therapies
Description: A small pilot study was conducted in steroid refractory/dependent IBD patients with the following objectives.
Primary objective: To assess the safety issues regarding the use of the DNA based oligonucleotide denoted as SEQ.ID.NO.1 in ulcerative colitis and Crohn's disease patients.
Secondary objective: To explore the clinical efficacy as determined by endoscopic and clinical remission/improvement rates, histological improvement and changes in clinical laboratory parameters.
The study was placebo controlled; double blinded single dose and considered patients that were unresponsive to corticosteroids or corticosteroid dependent who where on concomitant steroid therapies.
Doses levels used were 3 mg and 30 mg given as a single rectal administration

[4] = single rectal administration 3 mg or 30 mg

“5′-G*G*A*ACAGTTCGTCCAT*G*G*C-3′ (DNA dG*dG*dA*dAdCdAdGdTdTdCdGdTdCdCdAdT*dG*dG*dC) [SEQ.ID.NO 1, (Hu p65)AS, CpG-containing ODN; * marks phosphorothioate linkage, others phosphodiester]” was tested, and the IL-10 production (human PBMC [1]; 25 uM SEQ.ID.NO 1 for 24 hours after 12 hours prior incubation with dexamethasone) was “little production of IL-10”, the IL-10 production (human PBMC [1]; 100 uM SEQ.ID.NO 1 for 24 hours after 12 hours prior incubation with dexamethasone (most apparent at 10^−10 M)) was “dramatic increase in the amount of IL-10 produced; also recorded: levels higher than either mono treatment alone” and the “concentration from which IL-10 producing cells are induced” value (human PBMC [2]) was “around 5 uM”. The “induction of IL-10 producing cells” value (human PBMC [2]; FIG. 11) was “clear potential to induce IL-10 producing cells”, the “time to response of responding patients” value ([3]; after single rectal administration) was “within a week” and the “patients still in remission and steroid free” value ([3]; of the 7 patients that received the drug) was “two from the 7 patients”. The serious adverse events [3, 4] was “no serious adverse events were recorded”, the “Clinical response at week 1, responders” value [3, 4] was 71% and the “Clinical response at week 1, responders” value ([3]; single rectal administration 3 mg or 30 mg, listed as Active) was 71%. The efficacy ([3]; single rectal administration, 3 mg and 30 mg dose groups) was “good efficacy in both dose groups”.
